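Tested at 5 concentrations; 48 h exposure; 96-well plates; endpoints linearly interpolated, else capped at highest concentration. GI50 = concentration required for 50% inhibition of growth. At the TGI there is no net growth.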
What was measured:
Assay in all cases: NCI anticancer screen, dose series, 48 h
[1] = tested on: HL-60(TB) leukemia
[2] = tested on: NCI-H460 lung
[3] = tested on: SNB-75 CNS
[4] = tested on: HOP-18 NSCLC
[5] = tested on: HCC-2998 colon
[6] = tested on: SK-MEL-2 melanoma
[7] = tested on: NCI-H522 lung
[8] = tested on: DMS 273 small cell lung
[9] = tested on: NCI/ADR-RES ovarian
[10] = tested on: PC-3 prostate

Structure (SMILES) | TGI [1] [µM] | TGI [2] [µM] | TGI [3] [µM] | TGI [4] [µM] | TGI [5] [µM] | TGI [6] [µM] | TGI [7] [µM] | TGI [8] [µM] | TGI [9] [µM] | TGI [10] [µM] | GI50 [9] [µM] | GI50 [1] [µM] | GI50 [2] [µM] | GI50 [3] [µM] | GI50 [4] [µM] | GI50 [5] [µM] | GI50 [10] [µM] | GI50 [6] [µM] | GI50 [7] [µM] | GI50 [8] [µM]
BrC1=CC=C2NC=CC3=CC=NC1C32 (configuration not stated) | 12.1 | 17.9 | 98.9 | 66.8 | > 100 | 56.9 | 27.3 | > 92.5 |  |  |  |  |  |  |  |  |  |  |  | 
O=C(CO)CC(=O)C(=O)Nc1ccccc1 | > 100 | > 100 |  | > 100 | > 100 | > 100 |  | > 100 |  |  |  |  |  |  |  |  |  |  |  | 
CCCCCCCCCCCCCC(=O)CC(=O)c1c(O)cccc1O | 41.7 | 91.9 | > 100 | > 100 | > 100 | 41.4 | 59.1 | 41.1 |  |  |  |  |  |  |  |  |  |  |  | 
N#CC(C(=O)/C(=N/N)C(C#N)c1ccccc1)c1ccccc1 (configuration not stated) | > 100 | > 100 |  | > 100 | > 100 | > 100 | > 100 |  |  |  |  |  |  |  |  |  |  |  |  | 
Clc1cc(Cc2cc(Cl)c(Cl)c3c2OCOC3)c2c(c1Cl)COCO2 | > 100 | > 100 | 52.3 | 97.9 | > 100 | > 100 | > 100 | > 100 |  |  |  |  |  |  |  |  |  |  |  | 
CCOc1ccccc1NC(=O)CC1SC(=Nc2ccc([N+](=O)[O-])cc2)NC1=O (configuration not stated) | > 100 | 51.1 | 74.2 | 51.1 | 36.7 | 41.5 |  |  |  |  |  |  |  |  |  |  |  |  |  | 
Nc1ncnc2c1nc(Cl)n2C1OC2COP(=O)(O)OC2C1O (configuration not stated) | > 209 | > 300 | > 213 | > 300 | > 300 | > 300 | > 300 | > 222 | > 300 | > 162 |  |  |  |  |  |  |  |  |  | 
N[C@@H]1CCCC[C@H]1N.O=C([O-])C(=O)[O-].[Pt+4] | > 100 | 38.3 | > 100 | > 100 | 10 | 52.9 | 32.3 |  | 30.4 | > 100 | 0.0318 | 2.83 | 0.435 | 18.5 | 34.3 | 0.618 | 17.9 | 5.15 | 3.92 | 
O=C(CC1(O)C(=O)Nc2c(Cl)ccc(Cl)c21)c1ccc2ccccc2c1 (configuration not stated) | 4.04 | 25.5 | 54 | 37.2 | 35.6 | 26.3 | 9.24 | > 100 |  |  |  |  |  |  |  |  |  |  |  | 
N#Cc1c(NN)nc(NN)c(C#N)c1-c1ccccc1 | > 100 | > 100 | > 100 | > 100 | > 100 | > 100 |  | > 100 |  |  |  |  |  |  |  |  |  |  |  | 
CN(C)c1ccc([O][Bi]([Cl])[Cl])cc1 |  | > 100 | > 100 | > 100 | > 100 | > 100 |  | > 100 |  |  |  |  | > 100 | > 100 | > 100 | 42.5 |  | > 100 |  | > 100
Oc1cc(O)c2c(-c3c(O)c(-c4ccc(O)c(O)c4)[o+]c4cc(O)cc(O)c34)c(O)c(-c3ccc(O)c(O)c3)[o+]c2c1 |  | 90.6 | 61.8 | 36.4 | > 100 |  |  | > 100 |  |  |  |  |  |  |  |  |  |  |  | 

— PubChem BioAssay (NCI)
